Series [1] can be described thus: Amorphicity / crystallinity by XRD. To be noted: Comparative Example; promptly after spray drying and secondary drying. The series is classed as physicochemical. Here is the method:
The percent of crystallinity was calculated as follows: % crystallinity=area of crystalline peaks/(area of crystalline peaks+amorphous peaks)
Amorphicity and glass transition temperature were assessed using the methodology described in Example 1.

Series [2] is described as follows: Glass transition temperature by mDSC. To be noted: Comparative Example; promptly after preparation.
Series [3] can be described thus: Water content by coulometric Karl Fischer titration. Format: physicochemical. To be noted: Comparative Example; promptly after preparation.
Series [4] in a line: Assay and total impurities by HPLC (Example 6). The series is classed as physicochemical. As to conditions: Comparative Example; promptly after preparation.
Experimental: Assay and total impurities of the ASDs were assessed using either an Agilent 1200 HPLC or a Waters Alliance e2695 HPLC.
L100-55 ASDs and in Table 37 for Dasatinib:METHOCEL E5 ASDs at t=0 and at each stability time point. These reported assay values are corrected for the measured water content of the sample.
The conditions of series [5]: dasatinib in crystalline forms; cited from earlier work.

SMILES strings stand for the structures.

Here are results for two compounds from patent US11413290B2, “Amorphous solid dispersions of dasatinib and uses thereof” (NANOCOPOEIA, LLC, priority 2020, dated 2022).

Turning to `Cc1nc(Nc2ncc(C(=O)Nc3c(C)cccc3Cl)s2)cc(N2CCN(CCO)CC2)n1` [spray-dried material of 100% dasatinib], the XRD character result in series [1] is listed as “exhibited crystalline character”. Further, in series [2], the “glass transition temperature (Tg), transition event” value worked out at 125.61 °C. This compound had a Water content in series [3] of 0.81%. The assay value in series [4] stood at 97.4%.
As to `Cc1nc(Nc2ncc(C(=O)Nc3c(C)cccc3Cl)s2)cc(N2CCN(CCO)CC2)n1` [dasatinib, N-(2-chloro-6-methylphenyl)-2-[[6-[4-(2-hydroxyethyl)-1-piperazinyl]-2-methyl-4-pyrimidinyl]amino]-5-thiazolecarboxamide], in series [5], the “Biopharmaceutical Classification System (BCS) class” value is given as “Class II”.
